In brackets after ≈: the same amount, converted by molar mass. One block for each compound: values may come before it.
Columns and labels:
E. coli SI-PBLII = test: Broth microdilution MIC (strain enzymes: CTX-M2, TEM-1); type: cell-based; details: alone
E. coli SI-V502 = test: Broth microdilution MIC (strain enzymes: TEM-29, CTX-M15); type: cell-based; details: alone
E. coli 2806 = test: Broth microdilution MIC (strain enzymes: SHV-12, TEM-1); type: cell-based; details: alone
E. coli 3327 = test: Broth microdilution MIC (strain enzymes: TEM-1, SHV-12); type: cell-based; details: alone
E. coli 3174 = test: Broth microdilution MIC (strain enzymes: TEM-1, CTXM-15); type: cell-based; details: alone
K. pneumoniae ESBL 10 = test: Broth microdilution MIC (strain enzymes: SHV-12, TEM-1); type: cell-based; details: alone
E. coli SI-AIRT-4 = test: Broth microdilution MIC (strain enzymes: TEM-1); type: cell-based; details: alone
E. coli 1924 = test: Broth microdilution MIC (strain enzymes: TEM-12); type: cell-based; details: alone
K. pneumoniae 304487 = test: Broth microdilution MIC (strain enzymes: SHV-12,TEM-1); type: cell-based; details: alone
E. coli 25922 = test: Broth microdilution MIC (strain enzymes: None detected); type: cell-based; details: alone
K. pneumoniae 329633 = test: Broth microdilution MIC (strain enzymes: SHV-5, TEM-1); type: cell-based; details: alone
K. pneumoniae 115468 = test: Broth microdilution MIC (strain enzymes: TEM-1); type: cell-based; details: alone
K. pneumoniae 153239 = test: Broth microdilution MIC (strain enzymes: SHV-11, TEM-1); type: cell-based; details: alone
E. coli SI-NO36 = test: as above; type: cell-based; details: alone
K. oxytoca 176877 = test: Broth microdilution MIC (strain enzymes: SHV-105); type: cell-based; details: alone
[1] = tested on: panel of ESBL-producing Enterobacteriaceae (40 strains); test: Broth microdilution MIC50/MIC90 summary over the panel; type: cell-based; details: No BLI
K. pneumoniae 11/23 LF#2 = test: microbe, parasite or virus in culture; type: cell-based; details: alone
K. pneumoniae ESBL 8 #2 = test: Broth microdilution MIC (strain enzymes: SHV-12, TEM-1); type: cell-based; details: alone
K. oxytoca 496 #2 = test: Broth microdilution MIC (strain enzymes: SHV-105, TEM-1); type: cell-based; details: alone
K. pneumoniae KI (KCl) = test: Broth microdilution MIC (strain enzymes: TEM-10); type: cell-based; details: alone
K. pneumoniae ESBL 8 #1 = test: Broth microdilution MIC (strain enzymes: TEM-1, SHV-12); type: cell-based; details: alone
[2] = Excipient screening: solubility in SEDDS excipients; type: physicochemical; details: thermodynamic from solid
Method: The solubility of Compound 1-ethanolate was evaluated in a series of pharmaceutically acceptable excipients that are commonly used to prepare self-emulsifying drug delivery systems (SEDDS) for oral drug delivery. This class of formulation results in a solid solution of drug substance and excipients that enable the delivery of the drug substance and prevents precipitation upon contact with aqueous environments (i.e. the stomach). The indicated quantity of Compound 1-ethanolate was weighed into a 3 mL screw top glass vial outfitted with a magnetic stir bar. The vial was transferred to a controlled temperature heating block and 100 μL aliquots of each excipient was added with stirring. After each addition, the sample was evaluated for dissolution of the drug substance and additional aliquots of excipient were added until a clear, colorless solution was obtained. Table 22 summarizes the solubility screening for 25 excipients.

Structure (SMILES): CC1=C(C(=O)O)N2C(=O)[C@@H](NC(=O)[C@H](N)c3ccccc3)[C@H]2SC1 [Cephalexin, cefalexin, reference compound]
MIC of cefalexin (LEX) (E. coli SI-PBLII): 2 µg/mL | MIC of cefalexin (LEX) (E. coli SI-V502): 2 µg/mL | MIC of cefalexin (LEX) (E. coli 2806): 4 µg/mL | MIC of cefalexin (LEX) (E. coli 3327): 16 µg/mL | MIC of cefalexin (LEX) (E. coli 3174): 1 µg/mL | MIC of cefalexin (LEX) (K. pneumoniae ESBL 10): 16 µg/mL | MIC of cefalexin (LEX) (E. coli SI-AIRT-4): 0.25 µg/mL | MIC of cefalexin (LEX) (E. coli 1924): 2 µg/mL | MIC of cefalexin (LEX) (K. pneumoniae 304487): 8 µg/mL | MIC of cefalexin (LEX) (E. coli 25922): 0.5 µg/mL | MIC of cefalexin (LEX) (K. pneumoniae 329633): 16 µg/mL | MIC of cefalexin (LEX) (K. pneumoniae 115468): 8 µg/mL | MIC of cefalexin (LEX) (K. pneumoniae 153239): 2 µg/mL | MIC of cefalexin (LEX) (E. coli SI-NO36): 4 µg/mL | MIC of cefalexin (LEX) (K. oxytoca 176877): 8 µg/mL | Cephalexin MIC50 [1]: >32 µg/mL | Cephalexin MIC90 [1]: >32 µg/mL | MIC of cefalexin (LEX) (K. pneumoniae 11/23 LF#2): 2 µg/mL | MIC of cefalexin (LEX) (K. pneumoniae ESBL 8 #2): 16 µg/mL | MIC of cefalexin (LEX) (K. oxytoca 496 #2): 16 µg/mL | MIC of cefalexin (LEX) (K. pneumoniae KI (KCl)): 1 µg/mL | MIC of cefalexin (LEX) (K. pneumoniae ESBL 8 #1): 16 µg/mL

solubility ([2]; 50 °C, oil or lipid, Labrafil M1944CS (Oleoyl polyoxyl-6 glycerides)): > 140 mg/mL | solubility ([2]; 50 °C, oil or lipid, Labrafil M2125C5 (Linoleoyl polyoxyl-6 glycerides)): > 152 mg/mL | solubility ([2]; 50 °C, oil or lipid, Plurol Oleique CC497 (Polyglyceryl-3 dioleate)): > 375 mg/mL | solubility ([2]; 50 °C, organic solvent or mixture, Gelucire 44/14 (Lauroyl polyoxyl-32 glycerides)): > 284 mg/mL | solubility ([2]; 50 °C, organic solvent or mixture, Kolliphor EL (Polyoxyl 35 hydrogenated castor oil)): > 376 mg/mL | solubility ([2]; 50 °C, organic solvent or mixture, Kolliphor RH (PEG-40 Hydrogenated Castor Oil)): ~172 mg/mL (≈ 410 mM) | solubility ([2]; 50 °C, organic solvent or mixture, Labrasol (Caprylocaproyl polyoxyl-8 glycerides)): > 585 mg/mL | solubility ([2]; 50 °C, organic solvent or mixture, Polysorbate 80 (Polyoxyethylene (20) sorbitan monooleate)): > 238 mg/mL | solubility ([2]; Capmul MCM (Caprylic/capric mono- & diglycerides), 50 °C, oil or lipid): > 351 mg/mL | solubility ([2]; Ethanol, 50 °C, organic solvent or mixture): > 568 mg/mL | solubility ([2]; Glycerol, 50 °C, organic solvent or mixture): < 55.8 mg/mL | solubility ([2]; Lauroglycol (Propylene Glycol Monolaurate), neat excipient, 50 °C, oil or lipid): > 292 mg/mL | solubility ([2]; Maisine CC (glyceryl monolinoleate), 50 °C, oil or lipid): > 368 mg/mL | solubility ([2]; Myrj 52 (PEG-40 Stearate), neat excipient, 50 °C, organic solvent or mixture): > 277 mg/mL | solubility ([2]; PEG-400, 50 °C, organic solvent or mixture, PEG-400, 50° C.): > 498 mg/mL | solubility ([2]; PEG-1500, 50 °C, organic solvent or mixture, PEG-1500, 50° C.): > 382 mg/mL | solubility ([2]; PEG-3350, 65 °C, organic solvent or mixture, PEG-3350, 65° C.): > 280 mg/mL | solubility ([2]; Peceol (Glyceryl monooleate), neat excipient, 50 °C, oil or lipid): > 413 mg/mL | solubility ([2]; Phosal 50 PG (50% PC and propylene glycol), 50 °C, oil or lipid): > 419 mg/mL | solubility ([2]; Poloxamer 188, neat excipient, 65 °C, organic solvent or mixture, Poloxamer 188): > 225 mg/mL | solubility ([2]; Propylene Glycol, 50 °C, organic solvent or mixture): > 1210 mg/mL | solubility ([2]; Span 20 (Sorbitan monolaurate), neat excipient, 50 °C, organic solvent or mixture): > 227 mg/mL | solubility ([2]; Span 80, 50 °C, organic solvent or mixture, Span 80, 50° C.): > 276 mg/mL | solubility ([2]; TPGS, neat excipient, 50 °C, organic solvent or mixture): > 229 mg/mL | solubility ([2]; Triacetin (glycerin triacetate), 50 °C, organic solvent or mixture): > 84.2 mg/mL
Structure (SMILES): CCOB1Oc2c(cccc2C(=O)OCOC(=O)C(CC)CC)C[C@@H]1NC(=O)CC [Compound 1-ethanolate, ((2-ethylbutanoyl)oxy)methyl (R)-2-ethoxy-3-propionamido-3,4-dihydro-2H-benzo[e][1,2]oxaborinine-8-carboxylate]
